Measured values reported in patent US20150313228A1, “SYNERGISTIC HERBICIDAL COMBINATIONS AND METHODS OF USE” (priority 2012, published 2015).

Legend:
[1] = tested on: broad-leaf and grass weed species; assay: Field testing of pre-emergence application of dicamba and acetochlor in Argentina and/or South Africa (Example 10); settings: for percent control Y (DIACAMBA OR ATRAZINE ALONE): early rating (14 day); for Y (dicamba alone): late rating (28 day);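 for all read-outs here: percent weed control in field trials, rated at 14 days (early) and 28 days (late) after treatment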
[2] = tested on: soybeans; assay: Field screening for metribuzin tolerance in soybeans (Example 11, 13); assay type: in vivo, Glycine max; settings: soybean lines containing a heterozygous (CT) allele of NGMAX006079502
Protocol: Field screening for metribuzin tolerance in soybeans was performed at the Monsanto Company Soybean Research Station near Mount Olive, N.C. in 2010 and 2011. Metribuzin application rate was 0.5 lbs/acre metribuzin (Sencor®, Bayer Crop Science, Research Triangle Park, N.C., U.S.A.) one day prior to planting. Rows were planted as single six foot row plots with 9 seed per foot. Multiple repetitions were grown per row. Within 24 hours after planting, the trial was irrigated with 0.5 inches of water to help incorporate and activate the herbicide. Injury ratings were taken fourteen to twenty one (14 to 21) days after planting using a 1 to 9 scale (for example, 1=no damage, 9=completely killed). After identifying the target region through the mapping population described in Example 12, a molecular marker was identified. An association study was done using a soybean molecular marker database. Over 200 commercial and breeding lines were characterized for metribuzin tolerance in field and greenhouse screening, as described in Example 11.

COc1c(Cl)ccc(Cl)c1C(=O)O [Dicamba, 3,6-dichloro-2-methoxy benzoic acid]
percent control Y (DIACAMBA OR ATRAZINE ALONE) ([1]; AMADE, 560 g/ha): 99.3% | Y (dicamba alone) ([1]; AMADE, 560 g/ha): 83.1% | percent control Y (DIACAMBA OR ATRAZINE ALONE) ([1]; AMAQU, 280 g/ha): 52.9% | Y (dicamba alone) ([1]; AMAQU, 280 g/ha): 40.6% | percent control Y (DIACAMBA OR ATRAZINE ALONE) ([1]; AMAQU, 560 g/ha): 61.4% | Y (dicamba alone) ([1]; AMAQU, 560 g/ha): 54.3% | percent control Y (DIACAMBA OR ATRAZINE ALONE) ([1]; ANOCR, 280 g/ha): 53.0% | Y (dicamba alone) ([1]; ANOCR, 280 g/ha): 40.5% | percent control Y (DIACAMBA OR ATRAZINE ALONE) ([1]; ANOCR, 560 g/ha): 66.1% | Y (dicamba alone) ([1]; ANOCR, 560 g/ha): 54.5% | percent control Y (DIACAMBA OR ATRAZINE ALONE) ([1]; BIDPI, 280 g/ha): 2.3% | Y (dicamba alone) ([1]; BIDPI, 280 g/ha): 5.0% | percent control Y (DIACAMBA OR ATRAZINE ALONE) ([1]; BIDPI, 560 g/ha): 74.5% | Y (dicamba alone) ([1]; BIDPI, 560 g/ha): 72.5% | Y (dicamba alone) ([1]; BRAER, 560 g/ha): 67.5% | percent control Y (DIACAMBA OR ATRAZINE ALONE) ([1]; CHEAL, 280 g/ha): 56.7% | Y (dicamba alone) ([1]; CHEAL, 280 g/ha): 38.2% | percent control Y (DIACAMBA OR ATRAZINE ALONE) ([1]; CHEAL, 560 g/ha): 96.7% | Y (dicamba alone) ([1]; CHEAL, 560 g/ha): 86.7% | Y (dicamba alone) ([1]; CHRGA, 280 g/ha): 6.2% | percent control Y (DIACAMBA OR ATRAZINE ALONE) ([1]; CHRGA, 560 g/ha): 98.0% | Y (dicamba alone) ([1]; CHRGA, 560 g/ha): 100.0% | percent control Y (DIACAMBA OR ATRAZINE ALONE) ([1]; COMBE, 280 g/ha): 2.7% | Y (dicamba alone) ([1]; COMBE, 280 g/ha): 10.0% | percent control Y (DIACAMBA OR ATRAZINE ALONE) ([1]; COMBE, 560 g/ha): 75.0% | Y (dicamba alone) ([1]; COMBE, 560 g/ha): 76.3% | percent control Y (DIACAMBA OR ATRAZINE ALONE) ([1]; CONFA, 280 g/ha): 1.3% | Y (dicamba alone) ([1]; CONFA, 280 g/ha): 6.2% | percent control Y (DIACAMBA OR ATRAZINE ALONE) ([1]; CONFA, 560 g/ha): 17.5% | Y (dicamba alone) ([1]; CONFA, 560 g/ha): 55.0% | percent control Y (DIACAMBA OR ATRAZINE ALONE) ([1]; CYNDA, 280 g/ha): 28.8% | percent control Y (DIACAMBA OR ATRAZINE ALONE) ([1]; CYNDA, 560 g/ha): 47.7% | percent control Y (DIACAMBA OR ATRAZINE ALONE) ([1]; CYPES, 280 g/ha): 1.0% | Y (dicamba alone) ([1]; CYPES, 280 g/ha): 5.0% | percent control Y (DIACAMBA OR ATRAZINE ALONE) ([1]; CYPES, 560 g/ha): 65.0% | Y (dicamba alone) ([1]; CYPES, 560 g/ha): 63.3% | percent control Y (DIACAMBA OR ATRAZINE ALONE) ([1]; CYPRO, 280 g/ha): 42.3% | Y (dicamba alone) ([1]; CYPRO, 280 g/ha): 0.8% | percent control Y (DIACAMBA OR ATRAZINE ALONE) ([1]; CYPRO, 560 g/ha): 44.4% | Y (dicamba alone) ([1]; CYPRO, 560 g/ha): 15.4% | percent control Y (DIACAMBA OR ATRAZINE ALONE) ([1]; DATFE, 280 g/ha): 18.5% | Y (dicamba alone) ([1]; DATFE, 280 g/ha): 16.7% | percent control Y (DIACAMBA OR ATRAZINE ALONE) ([1]; DATFE, 560 g/ha): 59.6% | Y (dicamba alone) ([1]; DATFE, 560 g/ha): 58.5% | percent control Y (DIACAMBA OR ATRAZINE ALONE) ([1]; DIGER, 280 g/ha): 2.5% | Y (dicamba alone) ([1]; DIGER, 280 g/ha): 10.0% | percent control Y (DIACAMBA OR ATRAZINE ALONE) ([1]; DIGER, 560 g/ha): 98.0% | Y (dicamba alone) ([1]; DIGER, 560 g/ha): 100.0% | percent control Y (DIACAMBA OR ATRAZINE ALONE) ([1]; DIGSA, 280 g/ha): 32.7% | Y (dicamba alone) ([1]; DIGSA, 280 g/ha): 23.8% | percent control Y (DIACAMBA OR ATRAZINE ALONE) ([1]; DIGSA, 560 g/ha): 45.6% | Y (dicamba alone) ([1]; DIGSA, 560 g/ha): 32.7% | Y (dicamba alone) ([1]; DTTAE, 280 g/ha): 6.2% | Y (dicamba alone) ([1]; DTTAE, 560 g/ha): 100.0% | percent control Y (DIACAMBA OR ATRAZINE ALONE) ([1]; ELEAF, 280 g/ha): 100.0% | Y (dicamba alone) ([1]; ELEAF, 280 g/ha): 8.0% | percent control Y (DIACAMBA OR ATRAZINE ALONE) ([1]; ELEAF, 560 g/ha): 100.0% | Y (dicamba alone) ([1]; ELEAF, 560 g/ha): 97.5% | percent control Y (DIACAMBA OR ATRAZINE ALONE) ([1]; HIBCA, 280 g/ha): 1.8% | Y (dicamba alone) ([1]; HIBCA, 280 g/ha): 11.3% | percent control Y (DIACAMBA OR ATRAZINE ALONE) ([1]; HIBCA, 560 g/ha): 42.5% | Y (dicamba alone) ([1]; HIBCA, 560 g/ha): 55.0% | Y (dicamba alone) ([1]; IPOBA, 280 g/ha): 8.8% | Y (dicamba alone) ([1]; IPOBA, 560 g/ha): 0.0% | percent control Y (DIACAMBA OR ATRAZINE ALONE) ([1]; IPOPD, 280 g/ha): 2.6% | Y (dicamba alone) ([1]; IPOPD, 280 g/ha): 10.0% | percent control Y (DIACAMBA OR ATRAZINE ALONE) ([1]; IPOPD, 560 g/ha): 21.3% | Y (dicamba alone) ([1]; IPOPD, 560 g/ha): 45.0% | percent control Y (DIACAMBA OR ATRAZINE ALONE) ([1]; OVERALL, 280 g/ha): 36.2% | percent control Y (DIACAMBA OR ATRAZINE ALONE) ([1]; OVERALL, 560 g/ha): 57.4% | Y (dicamba alone) ([1]; Overall, 280 g/ha): 29.8% | Y (dicamba alone) ([1]; Overall, 560 g/ha): 51.7% | percent control Y (DIACAMBA OR ATRAZINE ALONE) ([1]; PERCENT WEED FREE, 280 g/ha): 64.5% | percent control Y (DIACAMBA OR ATRAZINE ALONE) ([1]; PERCENT WEED FREE, 560 g/ha): 74.2% | percent control Y (DIACAMBA OR ATRAZINE ALONE) ([1]; POROL, 280 g/ha): 35.8% | Y (dicamba alone) ([1]; POROL, 280 g/ha): 27.8% | percent control Y (DIACAMBA OR ATRAZINE ALONE) ([1]; POROL, 560 g/ha): 49.2% | Y (dicamba alone) ([1]; POROL, 560 g/ha): 45.0% | Y (dicamba alone) ([1]; Percent Weed Free, 280 g/ha): 43.4% | Y (dicamba alone) ([1]; Percent Weed Free, 560 g/ha): 54.3% | percent control Y (DIACAMBA OR ATRAZINE ALONE) ([1]; RCHBR, 280 g/ha): 2.4% | Y (dicamba alone) ([1]; RCHBR, 280 g/ha): 8.5% | percent control Y (DIACAMBA OR ATRAZINE ALONE) ([1]; RCHBR, 560 g/ha): 89.0% | Y (dicamba alone) ([1]; RCHBR, 560 g/ha): 88.8% | percent control Y (DIACAMBA OR ATRAZINE ALONE) ([1]; TAGMI, 280 g/ha): 0.0% | Y (dicamba alone) ([1]; TAGMI, 280 g/ha): 0.0% | percent control Y (DIACAMBA OR ATRAZINE ALONE) ([1]; TAGMI, 560 g/ha): 92.5% | Y (dicamba alone) ([1]; TAGMI, 560 g/ha): 64.3% | percent control Y (DIACAMBA OR ATRAZINE ALONE) ([1]; XANST, 280 g/ha): 15.3% | Y (dicamba alone) ([1]; XANST, 280 g/ha): 28.8% | percent control Y (DIACAMBA OR ATRAZINE ALONE) ([1]; XANST, 560 g/ha): 43.3% | Y (dicamba alone) ([1]; XANST, 560 g/ha): 32.5%

CSc1nnc(C(C)(C)C)c(=O)n1N [Metribuzin, 4-amino-6-(1,1-dimethylethyl)-3-(methylthio)-1,2,4-triazin-5(4H)-one]
metribuzin phenotype in the field [2]: mixed phenotype of both tolerance and sensitivity
